From a compilation of properties of binary mixtures (doi:10.1016/j.jct.2017.12.009)

Experiment: xn = mol fraction of the nth substance listed
Settings: 101 kPa

CO + CCCC[N+]1(C)CCCC1.O=S(=O)([O-])C(F)(F)F
x2 = 0
Settings	speed of sound [m/s]
278.15 K	1169
288.15 K	1135

CCCC[N+]1(C)CCCC1.O=S(=O)([O-])C(F)(F)F + CO
speed of sound [m/s]
Settings	278.15 K	288.15 K	298.15 K	308.15 K	318.15 K
x1 = 0.0501	1228	1198	1168	1138	1110
x1 = 0.1004	1274	–	–	1190	1163
x1 = 0.1503	1311	–	1257	1231	1205
x1 = 0.2002	–	1316	–	1264	1239
x1 = 0.3002	1389	1363	1338	1313	1289
x1 = 0.3996	1421	1396	1371	–	1324
x1 = 0.4998	1445	1420	1396	1372	1349
x1 = 0.6006	1463	1439	1415	–	1368
x1 = 0.7015	1478	1453	1429	1406	1383
x1 = 0.8013	1490	1465	–	1418	–
x1 = 0.8427	1495	1470	1446	1423	1400
x1 = 0.9008	1501	1476	1452	1429	1406
x1 = 0.9514	–	1480	1456	1433	1411
x1 = 1	1513	–	1461	1438	1415
